Reference: the NIST ThermoML archive (doi:10.1016/j.fluid.2011.01.001)
± gives the expanded uncertainty stated by the source.

Assays:
[1] = 101.33 kPa, Liquid, Vibrating tube method
[2] = refractive index (Na D-line) (dimensionless); details: 101.33 kPa, Liquid, Standard Abbe refractometry
[3] = mn = molality of the nth substance listed, in mol/kg; details: 101 kPa, Liquid, Vibrating tube method

CCn1cc[n+](C)c1.COS(=O)(=O)[O-] [1-ethyl-3-methylimidazolium methylsulfate]
mass density ([1]; 298.15 K): 1361.2 ± 75 kg/m3
mass density ([1]; 308.15 K): 1333.2 ± 75 kg/m3
mass density ([1]; 318.15 K): 1319.2 ± 75 kg/m3
mass density ([1]; 328.15 K): 1300.3 ± 75 kg/m3
refractive index ([2]; 298.15 K): 1.4822 ± 0.0007
refractive index ([2]; 308.15 K): 1.4782 ± 0.0006
refractive index ([2]; 318.15 K): 1.4759 ± 0.0007
refractive index ([2]; 328.15 K): 1.4704 ± 0.0008

CCn1cc[n+](C)c1.COS(=O)(=O)[O-] [1-ethyl-3-methylimidazolium methylsulfate] + O
mass density ([3]; 298.15 K, m1 = 0.0166): 998.28 ± 75 kg/m3
mass density ([3]; 298.15 K, m1 = 0.0244): 998.78 ± 75 kg/m3
mass density ([3]; 298.15 K, m1 = 0.0302): 999.18 ± 75 kg/m3
mass density ([3]; 298.15 K, m1 = 0.0372): 999.58 ± 75 kg/m3
mass density ([3]; 298.15 K, m1 = 0.0702): 1001.29 ± 75 kg/m3
mass density ([3]; 298.15 K, m1 = 0.077): 1001.59 ± 75 kg/m3
mass density ([3]; 298.15 K, m1 = 0.0961): 1002.25 ± 75 kg/m3
mass density ([3]; 298.15 K, m1 = 0.1191): 1003.09 ± 75 kg/m3
mass density ([3]; 298.15 K, m1 = 0.1346): 1003.69 ± 75 kg/m3
mass density ([3]; 298.15 K, m1 = 0.1823): 1005.3 ± 75 kg/m3
mass density ([3]; 298.15 K, m1 = 0.3343): 1011.4 ± 75 kg/m3
mass density ([3]; 298.15 K, m1 = 0.4226): 1014.99 ± 75 kg/m3
mass density ([3]; 298.15 K, m1 = 0.5486): 1020.29 ± 75 kg/m3
mass density ([3]; 298.15 K, m1 = 0.573): 998.28 ± 75 kg/m3
mass density ([3]; 308.15 K, m1 = 0.0166): 995.1 ± 75 kg/m3
mass density ([3]; 308.15 K, m1 = 0.0244): 995.59 ± 75 kg/m3
mass density ([3]; 308.15 K, m1 = 0.0302): 995.94 ± 75 kg/m3
mass density ([3]; 308.15 K, m1 = 0.0372): 996.31 ± 75 kg/m3
mass density ([3]; 308.15 K, m1 = 0.0702): 997.81 ± 75 kg/m3
mass density ([3]; 308.15 K, m1 = 0.077): 998.05 ± 75 kg/m3
mass density ([3]; 308.15 K, m1 = 0.0961): 998.74 ± 75 kg/m3
mass density ([3]; 308.15 K, m1 = 0.1191): 999.51 ± 75 kg/m3
mass density ([3]; 308.15 K, m1 = 0.1346): 999.99 ± 75 kg/m3
mass density ([3]; 308.15 K, m1 = 0.1823): 1002.08 ± 75 kg/m3
mass density ([3]; 308.15 K, m1 = 0.3343): 1008.04 ± 75 kg/m3
mass density ([3]; 308.15 K, m1 = 0.4226): 1011.67 ± 75 kg/m3
mass density ([3]; 308.15 K, m1 = 0.5486): 1017.02 ± 75 kg/m3
mass density ([3]; 308.15 K, m1 = 0.573): 1018.1 ± 75 kg/m3
mass density ([3]; 318.15 K, m1 = 0.0166): 991.05 ± 75 kg/m3
mass density ([3]; 318.15 K, m1 = 0.0244): 991.42 ± 75 kg/m3
mass density ([3]; 318.15 K, m1 = 0.0302): 991.68 ± 75 kg/m3
mass density ([3]; 318.15 K, m1 = 0.0372): 992 ± 75 kg/m3
mass density ([3]; 318.15 K, m1 = 0.0702): 993.46 ± 75 kg/m3
mass density ([3]; 318.15 K, m1 = 0.077): 993.68 ± 75 kg/m3
mass density ([3]; 318.15 K, m1 = 0.0961): 994.43 ± 75 kg/m3
mass density ([3]; 318.15 K, m1 = 0.1191): 995.31 ± 75 kg/m3
mass density ([3]; 318.15 K, m1 = 0.1346): 995.93 ± 75 kg/m3
mass density ([3]; 318.15 K, m1 = 0.1823): 997.93 ± 75 kg/m3
mass density ([3]; 318.15 K, m1 = 0.3343): 1003.88 ± 75 kg/m3
mass density ([3]; 318.15 K, m1 = 0.4226): 1007.18 ± 75 kg/m3
mass density ([3]; 318.15 K, m1 = 0.5486): 1011.85 ± 75 kg/m3
mass density ([3]; 318.15 K, m1 = 0.573): 1012.71 ± 75 kg/m3
mass density ([3]; 328.15 K, m1 = 0.0166): 985.78 ± 75 kg/m3
mass density ([3]; 328.15 K, m1 = 0.0244): 986.12 ± 75 kg/m3
mass density ([3]; 328.15 K, m1 = 0.0302): 986.36 ± 75 kg/m3
mass density ([3]; 328.15 K, m1 = 0.0372): 986.62 ± 75 kg/m3
mass density ([3]; 328.15 K, m1 = 0.0702): 987.97 ± 75 kg/m3
mass density ([3]; 328.15 K, m1 = 0.077): 988.23 ± 75 kg/m3
mass density ([3]; 328.15 K, m1 = 0.0961): 988.9 ± 75 kg/m3
mass density ([3]; 328.15 K, m1 = 0.1191): 989.75 ± 75 kg/m3
mass density ([3]; 328.15 K, m1 = 0.1346): 990.36 ± 75 kg/m3
mass density ([3]; 328.15 K, m1 = 0.1823): 992.14 ± 75 kg/m3
mass density ([3]; 328.15 K, m1 = 0.3343): 997.71 ± 75 kg/m3
mass density ([3]; 328.15 K, m1 = 0.4226): 1000.86 ± 75 kg/m3
mass density ([3]; 328.15 K, m1 = 0.5486): 1005.32 ± 75 kg/m3
mass density ([3]; 328.15 K, m1 = 0.573): 1006.1 ± 75 kg/m3

CCCCCCn1cc[n+](C)c1.CCOS(=O)(=O)[O-] [1-hexyl-3-methylimidazolium ethyl sulfate]
mass density ([1]; 298.15 K): 1137.54 ± 10 kg/m3
mass density ([1]; 308.15 K): 1130.74 ± 10 kg/m3
mass density ([1]; 318.15 K): 1124.29 ± 10 kg/m3
mass density ([1]; 328.15 K): 1117.81 ± 10 kg/m3
refractive index ([2]; 298.15 K): 1.4677 ± 0.0007
refractive index ([2]; 308.15 K): 1.4636 ± 0.0007
refractive index ([2]; 318.15 K): 1.4596 ± 0.0007
refractive index ([2]; 328.15 K): 1.4566 ± 0.0006
